US8815900B2, “Compounds and compositions for reducing lipid levels” (CVI Pharmaceuticals Limited, priority 2007, dated 2014)

Tested on: Wister male rats under a high fat and high cholesterol diet
Experiment: Lipid lowering and body weight effects of (14R,13S)-CRDL hydrochloride salt in Wister rats
Assay type: in vivo
Experimental: Male Wister rats were used as another animal model to examine the in vivo effects of (14R,13S)-CRDL in plasma lipid levels.
In one experiment, 18 Wister male rats under a high fat and high cholesterol diet were divided into 2 groups. One group was given (14R,13S)-CRDL hydrochloride salt orally at a daily dose of 75 mg/kg by an orogastric tube for 4 weeks, and the control group received daily treatment of equal amount of vehicle (0.1 M sodium phosphate, pH 3.5). Serum lipid levels were measured weekly.
At the end of treatment, Rats were sacrificed and blood and sera were collected to measure several critical parameters for liver function and kidney function. […] Kidney function and blood glucose level were not changed by the treatment (FIG. 11E).
The food intake and body weight gains were measured every week during the 4-week treatment period. […] In the first week, the amount of food consumed was decreased in CRDL-treated group. […] The ability of CRDL to activate AMPK signaling pathway to increase energy expenditure and to reduce fat accumulation likely contributes to this weight reducing effect.

[1] = (14R,13S)-CRDL hydrochloride salt orally 75 mg/kg daily, 4 weeks
[2] = end of 4-week treatment, 75 mg/kg daily orally
[3] = end of 4-week treatment, 75 mg/kg daily orally, vs control group

## COc1cc2c(cc1OC)[C@H]1[C@@H](C)c3ccc(OC)c(OC)c3CN1CC2 [CRDL, 14R,13S-(+)-corydaline]
4 weeks, 75 mg/kg daily orally, high fat and high cholesterol diet
  body weight: maintained constant
[1]
  LDL-c level, % of control: 25.6%
  LDL-c level, % of day 0: 22.4%
  TC, % compared to the control group: 33.8%
  TC, % of the pretreatment level: 33.0%
  TG level, % of the control: 29%
  TG level, % of the pretreatment level (day 0): 27%
  adverse effects during the entire treatment: No any adverse effects were observed
[2]
  blood glucose level: not changed
  kidney function (BUN, CREA): not changed
[3]
  serum level of ALT: statistically lower
  serum level of AST: statistically lower
